Measured values: patent US20110076258A1, “METHODS OF MODULATING T CELL- DEPENDENT IMMUNE RESPONSES” (Converge Biotech Inc., priority 2008, published 2011)
Entries after “also recorded” stand apart in the source; their conditions may differ.

Legend:
[1] = test system: cd3ε^−/− mice; assay: Inflammatory bowel disease induced by naïve CD4^+ T cells; assay type: in vivo, mouse
From the text: FIG. 8: Amelioration of inflammatory bowel disease by oATP treatment. • a) Photographs of representative mesenteric lymph nodes, spleens and colons from cd3ε^−/− mice adoptively transferred with CD4^+/CD25^+ and CD4^+ cells (see Example 5). […] Bar=1 cm • b) Histograms representing inflammation scores in animals treated as indicated (see methods section) (mean±SD; n=5, CD4^+/25^+ healthy control group; n=7, CD4^+ untreated group; n=8, CD4^+ oATP-treated group). • c) Hematoxilin/eosin (upper panels) and Alcian/PAS (lower panels) staining of colon sections from the indicated animals (all the microscopic pictures in the box were taken at the same magnification; scale bar=50 μm). […] Partial goblet cell depletion and reduction in size of Alcian-PAS-positive droplets are also noticeable (arrowheads); in mice reconstituted with CD4 cells and treated with PBS, the lamina propria is markedly expanded by inflammatory cell infiltrate with focal findings of crypt abscessation (arrow). Colonic crypts are also severely dysplastic with almost complete loss of goblet cells. • d) Cell recoveries from mesenteric lymph nodes and spleen of the indicated animals.
e) Absolute numbers of IL-2-, TNFα-, IFNγ- and IL-17-producing CD4^+ T cells in mesenteric lymph nodes from the indicated mice (mean±SD; n=5, CD4^+/25^+ healthy group; n=7, CD4^+ untreated group; n=8, CD4^+ oATP-treated group). *, P<0.05, **, P<0.001, ***, P<0.0001 • f) Absolute numbers of CD44^+CD62L^− effector/memory and CD69^+ CD4 cells recovered from mesenteric lymph nodes and spleen of the indicated group of animals (bars represent mean values).
To test oATP in a non-transgenic model of T cell-mediated inflammation, we induced inflammatory bowel disease (IBD) in T lymphopenic cd3ε^−/− mice by injecting naïve CD4^+ T cells. As a healthy control we used cd3ε^−/− mice injected with naïve CD4^+ T cells together with CD4^+CD25^+ cells comprising regulatory T cells (Treg). […] Starting at day 15 after cell transfer, the IBD group was daily injected intravenously either with PBS or oATP.

[2] = test system: naïve CD4^+ T cells; assay: IL-2 ELISA in culture supernatants, plate-bound CD3 and CD28 stimulation; assay type: cell-based, mouse; settings: versus untreated cells, 48 h
From the text: An inhibitory effect of oATP on peripheral blood T cell proliferation has been described (Baricordi et al., Blood 87:682-690 (1996)). […] We therefore hypothesize that ATP released from activated T cell is part of an autocrine loop, which plays an essential role in productive T cell activation.

[3] = test system: crt^−/− CD4^+ T cells
[4] = test system: human T cells; assay: Proliferation of CFSE-loaded T cells, plate-bound anti-CD3/28 (FACS); assay type: cell-based; settings: 100 μM oATP or 200 μM of PX10 peptide, four days
Experimental: Our results point to a role for pannexin hemichannels in ATP release in T cells. […] CFSE-loaded human T cells were stimulated with plate-bound anti-CD3/28 antibodies in the presence of 100 μM oATP or 200 μM of PX10 peptide. Four days later, the proliferation was measured by FACS analysis.

[5] = test system: ERK; assay: ERK phosphorylation time course after CD3 stimulation, TCR signaling blocked with PP2 at 30 min; assay type: cell-based, mouse; settings: added in combination with PP2
Experimental: After 30 min of stimulation, cells were either left untreated (first panel on the left), or treated with the src-like kinase inhibitor PP2 either alone (second panel) or in combination with oATP (third panel) or ARL (fourth panel).
(§1) In order to distinguish between TCR dependent and independent ERK activation, TCR signaling was blocked at 30 min after CD3 activation with the tyrosine kinase inhibitor PP2, which inhibits TCR dependent Ick/fyn src-like kinase activity.

[6] = test system: NFAT1; assay: NFAT1 nuclear localization after T cell stimulation; assay type: cell-based, mouse
Experimental: as §1
(§2) NFAT nuclear translocation without concomitant MAPK activation, which can be obtained by ionomycin treatment, implements a transcriptional program leading to T cell anergy (Macian et al., Cell 109:719-731 (2002)). […] Then, we hypothesized that activation of T cells in the presence of oATP could induce T cell anergy.

[7] = test system: OVA-specific T cell clones; assay: Calcium imaging of CD3 responsiveness after pre-stimulation (anergy); assay type: cell-based, mouse; settings: pre-incubated 16 h
From the text: as §2, with “anergy. […] The effect of oATP was not due to altered turn-over of the TCR/CD3 complex at the cell surface, as determined by FACS analysis (data not shown).” for “anergy.”

[8] = test system: naïve CD4 crt^−/− and crt^+/+ T cells; assay: CD62L re-expression after activation with plate bound CD3 and CD28 antibodies (FACS); assay type: cell-based, mouse; settings: crt^−/− and wild-type cells, 38 h
Experimental: FIG. 3: Mitochondrial Ca^2+ uptake during T cell activation leads to ATP synthesis and release. • a) ATP synthesis at different time points after T cell activation with CD3 antibodies in crt^−/− and crt^+/+ sorted naïve CD4^+ T cells (see Example 2). • b) ATP production upon T cell activation in the absence (control) or presence of the ATP synthetase inhibitor oligomycin. • c) FACS profile of CD62L expression on the surface of sorted naïve CD4 crt^−/− and crt^+/+ T cells at 38 h following activation with plate bound CD3 and CD28 antibodies. The same experiment was performed in the presence of oATP. • d) Naïve CD4^+ T cells were stained with the nucleotide binding compound quinacrine (see Example 2). The homogenous cytosolic staining indicates the absence of secretory vesicles containing ATP. • e) Subcellular fractionation of non-stimulated and activated naïve T cells on a continuous sucrose gradient (see Example 2). ATP was detected only in fractions containing also the cytosolic protein Zap-70 and not in those characterized by the small vesicular marker cellubrevin.
This shedding is thought to be inhibited by the P2X receptor antagonist oATP (Gu et al., Blood 92:946-951 (1998)). In vitro T cell activation of CD4 naïve T cells causes shedding of CD62L, which is progressively re-expressed following TCR triggering.

[9] = test system: DBA/1 mice; assay: Collagen-induced arthritis model of rheumatoid arthritis; assay type: in vivo, mouse

Nc1ncnc2c1ncn2[C@@H](C=O)O[C@@H](C=O)COP(=O)(O)OP(=O)(O)OP(=O)(O)O [oATP]
macroscopic intestine phenotype (thickening of the bowel wall, unformed or absent stool) ([1]; 5 weeks after reconstitution, daily i.v. from day 15): significantly ameliorated | number of proinflammatory cytokine (IL-2, IFN-γ and TNF-α)-secreting cells ([1]; mesenteric lymph nodes): significantly reduced | cellularity, CD4^+ effector/memory subset (CD44^+62L^−) and CD69^+ cells in mesenteric lymph nodes and spleen ([1]; mouse, in vivo): undistinguishable from healthy controls | colon histology (hematoxilin/eosin, Alcian/PAS) ([1]; mouse, in vivo): lamina propria is focally expanded by inflammatory cells infiltrate | inflammation score versus animals injected with CD4^+ and Treg cells ([1]; mouse, in vivo): not significantly different | number of IL-17 secreting cells ([1]; mouse, in vivo): analogous to the number in control mice | spleen and mesenteric lymph nodes size ([1]; mouse, in vivo): normal in size | IL-2 in the cell culture supernatant [2]: significant reduction | cellular damage due to toxicity, PI staining versus untreated [3]: did not reveal any difference | T cell proliferation [4]: strongly inhibited | ERK phosphorylation / activity [5]: significant inhibition; also recorded: almost completely abolished | nuclear localization of NFAT1 [6]: did not significantly affect | responsiveness in calcium imaging of previously stimulated T cells [7]: reduced responsiveness | CD62L re-expression after activation [8]: enhanced and identical re-expression efficiency | clinical score variation versus control group ([9]; 3 mM in 100 μl i.v., after the initial five days of treatment): consistently lower | collagen-specific antibodies (type II collagen ELISA) ([9]; versus control mice): decreased
